Test: Compatibility of orlistat with surfactants
Format: physicochemical
Conditions: Chremophor EL emulsifying agent

CCCCCCCCCCC[C@@H](C[C@@H]1OC(=O)[C@H]1CCCCCC)OC(=O)[C@H](CC(C)C)NC=O [orlistat]
effect of surfactant on degradation of orlistat: accelerate degradation
